Test results published in paper PMC8611673 (JACS Au, 2021).

Tested on: HeLa 654 cells
Test: EGFP assay with chemical endocytosis inhibitors
Assay type: cell-based, human
Conditions: higher concentrations of the inhibitor

SMILES | toxicity of the inhibitor to HeLa 654 cells
COC[C@H]1OC(=O)c2coc3c2[C@@]1(C)C1=C(C3=O)[C@@H]2CCC(=O)[C@@]2(C)C[C@H]1OC(C)=O [wortmannin] | appeared to be toxic
C=C1[C@@H](C)[C@H]2[C@H](Cc3ccccc3)NC(=O)[C@]23[C@H](OC(C)=O)/C=C/[C@@](C)(O)C(=O)[C@@H](C)C/C=C/[C@H]3[C@@H]1O [cytochalasin D] | appeared to be toxic
